Reference: BindingDB's records for doi:10.1021/jm000209n (Tohoku University, 2000)

Tests used:
[1] = Tested in vitro against HIV-1 LAI from MT-4 cells using MTT assay
[2] = Tested in vitro against HIV-1 MDR using MAGI assay

Q: With `C#C[C@]1(CO)O[C@@H](n2cc(CC)c(=O)[nH]c2=O)C[C@H]1O` as the molecule, how does the EC50 [1] read?
A: > 360 µM

Q: For `C#C[C@]1(CO)O[C@@H](n2cc(C)c(N)nc2=O)C[C@H]1O` [4-Amino-1-(5-ethynyl-4-hydroxy-5-hydroxymethyl-tetrahydro-furan-2-yl)-5-methyl-1H-pyrimidin-2-one], which EC50 [2] is on record?
A: 0.0045 µM

Q: What about the EC50 [1] of the same molecule?
A: 0.011 µM

Q: Which EC50 [2] does the source give for `C#C[C@]1(CO)O[C@@H](n2cc(C)c(=O)[nH]c2=O)C[C@H]1O` [1-(5-Ethynyl-4-hydroxy-5-hydroxymethyl-tetrahydro-furan-2-yl)-5-methyl-1H-pyrimidine-2,4-dione] here?
A: 0.24 µM

Q: What about the EC50 [1] of the same molecule?
A: 0.61 µM

Q: With `C#C[C@]1(CO)O[C@@H](n2cnc3c(=O)[nH]c(N)nc32)C[C@H]1O` [2-Amino-9-(5-ethynyl-4-hydroxy-5-hydroxymethyl-tetrahydro-furan-2-yl)-9H-purin-6-ol] as the molecule, how does the EC50 [1] read?
A: 0.0014 µM

Q: For `C#C[C@]1(CO)O[C@@H](n2cc(Cl)c(=O)[nH]c2=O)C[C@H]1O`, which EC50 [1] is on record?
A: 6 µM

Q: With `C#C[C@]1(CO)O[C@@H](n2cnc3c(N)ncnc32)C[C@H]1O` [5-(6-Amino-purin-9-yl)-2-ethynyl-2-hydroxymethyl-tetrahydro-furan-3-ol] as the molecule, how does the EC50 [1] read?
A: 0.012 µM

Q: For `C#C[C@]1(CO)O[C@@H](n2cc(F)c(=O)[nH]c2=O)C[C@H]1O`, which EC50 [1] is on record?
A: > 10 µM

Q: For `C#C[C@]1(CO)O[C@@H](n2ccc(N)nc2=O)C[C@H]1O` [4-Amino-1-(5-ethynyl-4-hydroxy-5-hydroxymethyl-tetrahydro-furan-2-yl)-1H-pyrimidin-2-one], which EC50 [2] is on record?
A: 0.0015 µM

Q: What about the EC50 [1] of the same molecule?
A: 0.0048 µM

Q: With `C#C[C@]1(CO)O[C@@H](n2cnc3c(=O)[nH]cnc32)C[C@H]1O` [9-(5-Ethynyl-4-hydroxy-5-hydroxymethyl-tetrahydro-furan-2-yl)-9H-purin-6-ol] as the molecule, how does the EC50 [2] read?
A: 0.65 µM

Q: What about the EC50 [1] of the same molecule?
A: 0.15 µM

Q: For `C#C[C@]1(CO)O[C@@H](n2cc(I)c(=O)[nH]c2=O)C[C@H]1O` [1-(5-Ethynyl-4-hydroxy-5-hydroxymethyl-tetrahydro-furan-2-yl)-5-iodo-1H-pyrimidine-2,4-dione], which EC50 [2] is on record?
A: 0.62 µM

Q: What about the EC50 [1] of the same molecule?
A: 0.34 µM

Q: With `C#C[C@]1(CO)O[C@@H](n2cc(Br)c(=O)[nH]c2=O)C[C@H]1O` as the molecule, how does the EC50 [1] read?
A: 2.3 µM

Q: For `C#C[C@]1(CO)O[C@@H](n2cnc3cncnc32)C[C@H]1O` [2-Ethynyl-2-hydroxymethyl-5-purin-9-yl-tetrahydro-furan-3-ol], which EC50 [2] is on record?
A: 145 µM

Q: What about the EC50 [1] of the same molecule?
A: 117 µM

Q: Which results are given for `Cc1cn([C@H]2C[C@H](N=[N+]=[N-])[C@@H](CO)O2)c(=O)[nH]c1=O` [1-((2R,4S,5S)-4-Azido-5-hydroxymethyl-tetrahydro-furan-2-yl)-5-methyl-1H-pyrimidine-2,4-dione]?
A: EC50 [2]: 24.9 µM; EC50 [1]: 0.038 µM

Q: For `C#C[C@]1(CO)O[C@@H](n2cnc3c(N)nc(N)nc32)C[C@H]1O` [5-(2,6-Diamino-purin-9-yl)-2-ethynyl-2-hydroxymethyl-tetrahydro-furan-3-ol], which EC50 [2] is on record?
A: 0.0013 µM

Q: What about the EC50 [1] of the same molecule?
A: 0.0003 µM

Q: For `C#C[C@]1(CO)O[C@@H](n2cc(F)c(N)nc2=O)C[C@H]1O` [4-Amino-1-(5-ethynyl-4-hydroxy-5-hydroxymethyl-tetrahydro-furan-2-yl)-5-fluoro-1H-pyrimidin-2-one], which EC50 [2] is on record?
A: 0.009 µM

Q: And the EC50 [1]?
A: 0.03 µM
